Values quoted from earlier work as cited in patent publication US11951146B2, “Stimulation of NK cell activity by using a combination of broccoli, Nigella Sativa, Green Tea, and pterostilbene alone and together with metformin” (Therapeutic Solutions International, Inc., priority 2020, dated 2024).
Read-outs that look alike come from different tables or passages of the source. Each block holds one molecule with its values, some of them ahead of it.

Key:
[1] = test system: primary peritoneal macrophages
[2] = test system: LPS-induced ARDS
[3] = test system: LPS-challenged macrophages; details: pre-incubated 6 h, then LPS 24 h
[4] = test system: sepsis; details: for concentration of IL-la: controls 1187.0±278.64
[5] = test system: lipopolysaccharide-induced inflammatory reactions
[6] = test system: lipopolysaccharide-activated macrophages
[7] = test system: myocardial ischemia and reperfusion; details: EGCG 10 mg/kg intravenously then 10 mg/kg/h infusion
[8] = test system: LPS-induced ARDS; details: EGCG 10 mg/kg ip
[9] = test system: polymicrobial sepsis; details: 10 mg/kg intraperitoneally, 72 h after CL2P
[10] = test system: macrophage foam cells
[11] = test system: lethal endotoxemia / lethal sepsis
[12] = test system: polymicrobial sepsis; details: 10 mg/kg intraperitoneally at 1 and 6 h after CL2P and every 12 h
[13] = test system: experimental colitis; details: 50 and 100 mg/kg/day EGCG
[14] = test system: interleukin-1, interleukin-6, interleukin-8, TNF-alpha
[15] = rat, in vivo

Molecule: C[S+]([O-])CCCCN=C=S (stereo not shown) [sulforaphane, 1-isothiocyanato-4-(methylsulfinyl)-butane]
HO-1 expression ([1]; LPS-stimulated Nrf2 (+/+) primary peritoneal macrophages): significantly augmented | LPS-stimulated mRNA expression, protein expression and production of TNF-alpha, IL-1beta, COX-2 and iNOS ([1]; Nrf2 (+/+) primary peritoneal macrophages, pretreatment): potently inhibited | anti-inflammatory effect ([1]; Nrf2 (−/−) primary peritoneal macrophages): attenuated | Nrf2/antioxidant response element (ARE) pathway ([2]; pre-treatment): activated | LDH activity, wet-to-dry ratio of the lungs, serum IL-6 and TNF-α, nuclear factor-κB protein expression ([2]; sulforaphane 50 mg/kg, LPS 5 mg/kg 3 days later): significantly decreased | PGE2 production, COX-2 and MMP-9 protein expression, iNOS activity ([2]; sulforaphane 50 mg/kg, LPS-induced ALI): significantly inhibited | expression of NO and cytokines [3]: prevent the expression

Molecule: CC1=CC(=O)C(C(C)C)=CC1=O [thymoquinone]
concentration of IL-la ([4]; 0.75 mg/kg thymoquinone dose): 310.8 ± 70.93 pg/mL | IL-1β levels ([4]; 0.75 mg/kg thymoquinone, controls 5505.2±333.96): 2885.0 ± 553.98 pg/mL | concentration of IL-la ([4]; 1 mg/kg group): 428.3 ± 71.32 pg/mL | levels of TNF-α and IL-2 ([4]; P values=0.1817 and 0.0851): relatively lower levels | reduction of mortality ([4]; mice, sepsis): 80-90% | renal and hepatic biomarker profiles ([4]; mice, sepsis): improved | lipopolysaccharide-induced inflammatory reactions [5]: suppressed effectively | concentration of nitric oxide ([5]; lipopolysaccharide-induced): reduced significantly

Molecule: epigallocatechin-3-gallate [EGCG]
NO production ([6]; cells cotreated with EGCG and LPS): Inhibition | activation of nuclear factor-kappaB ([6]; electrophoretic mobility shift assay): blocked the activation | myocardial damage and myeloperoxidase activity [7]: reduced | plasma IL-6 and creatine phosphokinase levels [7]: decreased | expression of IκB-α [8]: increased the expression | expression of TLR-4, MyD88, TRIF and p-p65 in the lung tissue [8]: alleviated the expression | expression of TNF-α, IL-1β and IL-6 in lung, serum and bronchoalveolar lavage fluid [8]: significantly decreased | expression of p65 [8]: had no influence | survival [9]: significantly improved | TNF-α-induced nuclear factor-κB (NF-κB) activity [10]: inhibition | TNF-α-induced downregulation of ABCA1 and decrease in cholesterol efflux to apoA1 ([10]; pretreatment with EGCG): attenuated | rescue from lethal sepsis ([11]; first dose 24 hours after cecal ligation and puncture): rescued | protection against lethal endotoxemia ([11]; intraperitoneal): protected | hypotension (mean arterial blood pressure) [12]: significantly improved | HIF-la and STAT3 protein expression in the colon [13]: decreasing | plasma levels of IL-1β and TGF-β1 [13]: increasing | release of IL-6 and IL-17 [13]: reduce the release

bioavailability [15]: 80%
Molecule: trans-3,5-dimethoxy-4-hydroxystilbene [pterostilbene]
inhibition of interleukin-1, interleukin-6, interleukin-8 and TNF-alpha [14]: inhibition
